The values that follow come from patent US5962314A, “Calcium receptor-active molecules” (priority 1997, dated 1999).

“Also recorded” adds a separate entry of the source. No end group written: not given here.

For assay [1], the target named is T1, parathyroid cell calcium receptor (Bos taurus, UniProt P35384).
T1 sequence (P35384 20-1085): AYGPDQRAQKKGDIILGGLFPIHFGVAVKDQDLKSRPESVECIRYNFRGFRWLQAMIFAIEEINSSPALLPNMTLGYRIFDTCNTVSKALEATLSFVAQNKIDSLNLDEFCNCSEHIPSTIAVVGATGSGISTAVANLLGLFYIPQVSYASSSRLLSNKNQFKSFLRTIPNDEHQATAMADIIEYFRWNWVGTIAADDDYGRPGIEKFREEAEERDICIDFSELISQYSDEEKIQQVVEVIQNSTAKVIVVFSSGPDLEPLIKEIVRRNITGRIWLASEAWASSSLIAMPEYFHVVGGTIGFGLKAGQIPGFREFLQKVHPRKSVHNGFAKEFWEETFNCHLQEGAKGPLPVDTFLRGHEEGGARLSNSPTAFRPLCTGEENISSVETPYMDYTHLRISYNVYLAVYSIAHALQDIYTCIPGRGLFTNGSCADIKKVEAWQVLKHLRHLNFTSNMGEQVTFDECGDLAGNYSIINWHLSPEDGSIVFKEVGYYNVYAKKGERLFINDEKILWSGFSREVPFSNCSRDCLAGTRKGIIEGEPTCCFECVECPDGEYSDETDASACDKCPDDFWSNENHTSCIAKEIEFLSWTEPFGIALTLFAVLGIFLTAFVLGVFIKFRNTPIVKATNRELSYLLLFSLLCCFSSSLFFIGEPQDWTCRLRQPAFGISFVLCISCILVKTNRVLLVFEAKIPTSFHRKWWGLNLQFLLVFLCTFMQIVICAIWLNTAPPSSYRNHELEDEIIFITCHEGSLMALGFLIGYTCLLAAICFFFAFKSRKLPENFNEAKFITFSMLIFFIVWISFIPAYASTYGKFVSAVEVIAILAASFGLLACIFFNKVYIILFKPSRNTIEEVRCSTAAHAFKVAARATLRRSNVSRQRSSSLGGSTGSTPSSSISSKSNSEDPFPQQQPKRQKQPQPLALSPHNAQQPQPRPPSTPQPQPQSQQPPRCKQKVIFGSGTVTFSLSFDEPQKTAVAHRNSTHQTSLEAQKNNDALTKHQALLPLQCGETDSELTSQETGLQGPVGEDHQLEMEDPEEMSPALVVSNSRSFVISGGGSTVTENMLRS
As to the kind of experiment: cell-based. It counts as cell-based.
Procedure: For example,. bovine parathyroid cells loaded with fura-2 are initially suspended in buffer containing 0.5 mM CaCl2. A test substance is added to the cuvette in a small volume (5-15 μl) and changes in the fluorescence signal are measured. Cumulative increases in the concentration of the test substance are made in the cuvette until some predetermined concentration is achieved or no further changes in fluorescence are noted.
Human parathyroid glands, were obtained from patients undergoing surgical removal of parathyroid tissue for primary or uremic hyperparathyroidism (uremic HPT), and were treated similarly to bovine tissue.
The cells were then pelleted, resuspended in the same buffer, but lacking the ester, and incubated a further 15 minutes at 37° C. The cells were subsequently washed twice with PCB containing 0.5 mM CaCl2 and 0.5% BSA and maintained at room temperature (about 20° C.). Immediately before use, the cells were diluted five-fold with prewarmed 0.5 mM CaCl2 -PCB to obtain a final BSA concentration of 0.1%. The concentration of cells in the cuvette used for fluorescence recording was 1-2×10^6 /ml.
The fluorescence of indicator-loaded cells was measured at 37° C. in a spectrofluorimeter (Biomedical Instrumentation Group, University of Pennsylvania, Philadelphia, Pa.) equipped with a thermostated cuvette holder and magnetic stirrer using excitation and emission wavelengths of 340 and 510 nm, respectively. […] Leakage of dye is dependent on temperature and most occurs within the first 2 minutes after warming the cells in the cuvette. Dye leakage increases only very slowly thereafter. To correct the calibration for dye leakage, cells were placed in the cuvette and stirred at 37° C. for 2-3 minutes. The cell suspension was then removed, the cells pelleted, and the supernatant returned to a clean cuvette. […] This estimate was subtracted from the apparent Fmin.

Assay [2] addresses T2, calcium receptor (Homo sapiens, UniProt P41180).
T2 sequence (P41180 20-1078): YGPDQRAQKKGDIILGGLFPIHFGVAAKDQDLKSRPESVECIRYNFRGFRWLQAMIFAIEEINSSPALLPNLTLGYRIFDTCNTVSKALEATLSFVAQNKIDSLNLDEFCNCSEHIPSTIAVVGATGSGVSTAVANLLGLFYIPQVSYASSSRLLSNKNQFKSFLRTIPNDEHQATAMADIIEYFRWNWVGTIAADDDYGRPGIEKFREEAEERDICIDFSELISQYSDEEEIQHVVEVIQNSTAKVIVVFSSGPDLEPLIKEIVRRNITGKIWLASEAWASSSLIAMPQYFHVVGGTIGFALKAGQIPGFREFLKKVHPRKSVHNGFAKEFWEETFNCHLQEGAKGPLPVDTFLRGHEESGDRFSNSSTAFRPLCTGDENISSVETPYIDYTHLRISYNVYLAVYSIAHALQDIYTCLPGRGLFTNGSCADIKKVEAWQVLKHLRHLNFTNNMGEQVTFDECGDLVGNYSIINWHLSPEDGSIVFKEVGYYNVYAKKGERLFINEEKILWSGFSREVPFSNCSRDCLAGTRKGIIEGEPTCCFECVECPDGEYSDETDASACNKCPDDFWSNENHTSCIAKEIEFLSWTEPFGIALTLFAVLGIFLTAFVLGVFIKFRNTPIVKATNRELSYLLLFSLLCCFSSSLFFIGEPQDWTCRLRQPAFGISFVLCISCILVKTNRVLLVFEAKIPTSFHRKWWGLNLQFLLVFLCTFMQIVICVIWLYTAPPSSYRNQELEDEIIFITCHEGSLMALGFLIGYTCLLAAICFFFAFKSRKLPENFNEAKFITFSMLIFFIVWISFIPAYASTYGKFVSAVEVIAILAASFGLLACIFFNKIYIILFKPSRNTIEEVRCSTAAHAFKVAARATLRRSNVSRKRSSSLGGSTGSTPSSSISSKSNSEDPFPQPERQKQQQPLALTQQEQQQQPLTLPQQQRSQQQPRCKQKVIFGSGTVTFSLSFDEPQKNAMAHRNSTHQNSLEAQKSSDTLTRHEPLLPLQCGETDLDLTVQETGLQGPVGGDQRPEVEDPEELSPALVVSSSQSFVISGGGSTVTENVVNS
The assay can be described thus: Xenopus oocytes injected with human parathyroid cell mRNA. Format: cell-based. The note with it: hexacyclen 135 μM; neomycin 100 μM; NPS 382 5 mM. The method, then: Oocytes were injected with poly(A)^+ -enriched mRNA from human parathyroid tissue (hyperplastic glands from a case of secondary HPT).
(§1) Following incubation, an oocyte was placed into a 100-μl plastic chamber and superfused with MBS at a flow rate of 0.5 ml/min using a peristaltic pump. Test molecules or inorganic polycations were added by rapidly moving the tubing into different buffers. Recording and current-passing electrodes were constructed from thin-wall capillary tubing pulled to a resistance of 1-3 Mohms and filled with 3 M KCl. […] Currents were recorded directly onto a strip chart recorder.
Using this screen allows one to test for an action directly on the calcium receptor. Oocytes expressing the calcium receptor also responded to several molecules active on intact parathyroid cells when screened as follows. […] This offers rather compelling evidence showing that these molecules act on the calcium receptor or on some other protein intimately associated with its function.

In assay [3] the test system is parathyroid calcium receptors. The assay can be described thus: response of calcium receptor-transfected HEK293, CHO and JEG-3 cells. Format: cell-based. Here is the method:
Functional calcium receptor expression was assessed by loading cells with fura-2 and measuring changes in intracellular calcium levels after addition of calcium receptor agonists. Control constructs were prepared by cloning the substance K receptor and the M1 muscarinic receptor cDNAs into similar commercial vectors as described above. Control constructs were transfected into the various cell lines described above, and the response of the cells containing the control constructs to substance K or to carbachol, respectively, was measured. […] Neither control responded to increases in extracellular calcium.

In assay [4] the target is T1, parathyroid cell calcium receptor. As to the kind of experiment: Cl- current in Xenopus oocytes injected with bovine parathyroid cell mRNA. Format: cell-based. The arrangement: Whole pieces of gland were used to prepare mRNA that directs the expression of the calcium receptor in Xenopus oocytes; expressed in transfected cells; host or cells: Xenopus laevis oocytes injected with parathyroid poly(A)+ mRNA. Conditions: oocytes expressing parathyroid calcium receptor, fendiline 100 μM. The method, then: as §1

The test system of assay [5] is bovine parathyroid cells. The assay can be described thus: PTH secretion from bovine parathyroid cells. It counts as cell-based.
Procedure: PTH secretion was measured by first suspending cells in PCB containing 0.5 mM CaCl2 and 0.1% BSA.
For assay [6], the system named is cyclic AMP. It counts as cell-based, bovine.
Procedure: Cells were incubated as above for PTH secretion studies and at the end of the incubation, a 0.15-ml sample was taken and transferred to 0.85 ml of hot (70° C.) water and heated at this temperature for 5-10 minutes. The tubes were subsequently frozen and thawed several times and the cellular debris sedimented by centrifugation. Portions of the supernatant were acetylated and cyclic AMP concentrations determined by radioimmunoassay.
Each value is the mean±SEM of three experiments.
Assay [7] concerns inositol phosphates. The assay can be described thus: inositol phosphate formation in parathyroid cells. Format: cell-based, bovine. The note with it: 30 seconds. The method, then:
After 30 seconds, the reaction was terminated by the addition of CHCl3 :MeOH:HCl and IP1 (circles) and IP3 (triangles) separated by anion exchange chromatography. Each point is the mean of 2 experiments, each performed in triplicate.
This section describes procedures measuring inositol phosphate formation. Membrane phospholipids were labeled by incubating parathyroid cells with 4 μCi/ml ^3 H-myo-inositol for 20-24 hours. Cells were then washed and resuspended in PCB containing 0.5 mM CaCl2 and 0.1% BSA. Incubations were performed in microfuge tubes in the absence or presence of various concentrations of organic polycation for different times. Reactions were terminated by the addition of 1 ml chloroform-methanol-12 N HCl (200:100:1; v/v/v). Aqueous phytic acid hydrolysate (200 μl; 25 μg phosphate/tube). The tubes were centrifuged and 600 μl of the aqueous phase was diluted into 10 ml water.
Inositol phosphates were separated by ion-exchange chromatography using AG1-X8 in either the chloride- or formate-form. When only IP3 levels were to be determined, the chloride-form was used, whereas the formate form was used to resolve the major inositol phosphates (IP3, IP2, and IP1). […] The last eluate was diluted and counted. […] The eluted samples from the formate columns were rotary evaporated, the residues brought up in cocktail, and counted.

Assay [8] concerns the target T1, parathyroid cell calcium receptor. As to the kind of experiment: block of extracellular Ca2+-induced increases in [Ca2+]i in bovine parathyroid cells. Format: cell-based.
For assay [9], the system named is osteoclast calcium receptor. As to the kind of experiment: [Ca2+]i in indo-1-loaded rat osteoclasts. Format: cell-based.

Consider `C1CNCCNCCNCCNCCNCCN1` [Hexacyclen, 1,4,7,10,13,16-hexaaza-cyclooctadecane], for which, in [1] (ring structure vs straight chain), the “potency increase relative to pentaethylenehexamine” value stood at 25 fold. Also, the “mobilization of intracellular Ca2+ in oocytes” value in assay [2] is listed as “caused the mobilization of intracellular Ca^2+”.
Consider `C[N+](C)(C)CCOC(N)=O` [carbachol], for which the “response of calcium receptor-transfected cells” value in assay [3] was “did not respond”.
`NCCCN(CCCN)CCCNCCCCNCCCN(CCCN)CCCN` [NPS 382, N^1,N^1,N^5,N^14,N^14-tetrakis-(3-aminopropyl)spermine]: the “effect on [Ca2+]i” value in assay [1] is listed as “mobilize intracellular Ca^2+”. Also, the “relative potency, in words” value in assay [1] (parathyroid cells) is “about twice as potent as NPS 381”. Besides, the “mobilization of intracellular Ca2+ in oocytes” value in assay [2] is “also effective”.
As to `CC(NCCC(c1ccccc1)c1ccccc1)c1ccccc1` (racemic) [Fendiline], the “effect on Cl- current / intracellular Ca2+” value in [4] is “evokes the mobilization of intracellular Ca^2+”; in assay [4] (listed as fendiline), “evokes oscillatory increases in Cl^-; also recorded: elicits oscillatory increases in Cl^-”.
For protamine, the “effect on [Ca2+]i” value in [1] is “evoked rapid and transient increases in [Ca^2+ ]i”. The “effect on intracellular Ca2+” value in assay [1] (neomycin B 30 μM, protamine 1 μg/ml) is given as “mobilization of intracellular Ca^2+”. In assay [5] (bovine parathyroid cells), the “effect on PTH secretion” value is recorded as “inhibit PTH secretion; also recorded: inhibited PTH secretion to the same extent as extracellular Ca^2+”. In addition, the “effect on isoproterenol-induced increases in cyclic AMP” value in [6] is given as “depressed isoproterenol-induced increases in cyclic AMP”. Moreover, the “effect on inositol phosphate formation” value in [7] is reported as “increases the formation of inositol phosphates; also recorded: rapid (within 30 seconds) increase in the formation of IP3”.
For the compound “substance K: ligand of substance K receptor (HKTDSFVGLM; ends and bridges not checked; UniProt P20366 98-107, looked up)”, in assay [3], the “response of calcium receptor-transfected cells” value is given as “did not respond”.
Turning to `NCCCCCCCCCCCCNC(=O)Cc1ccc(O)cc1O` [NPS 021], the “effect on extracellular Ca2+-elicited increase in [Ca2+]i” value in [8] (200 μM) was “inhibited the increase in [Ca^2+ ]i”. Also, the “effect on basal [Ca2+]i” value in [8] (0.5 mM CaCl2) was “caused no change in [Ca^2+ ]i; also recorded: does not by itself cause any change in [Ca^2+ ]i”. Further, in assay [8] (around 500 μM), the “effect on extracellular Ca2+-evoked increase in [Ca2+]i” value is “abolished”.
Take `CC(Cc1ccccc1)NCCC(c1ccccc1)c1ccccc1` (centres unmarked) [Prenylamine]: in assay [9], the “effect on [Ca2+]i in osteoclasts” value is “mobilization of [Ca^2+ ]i”.
Consider `NCCCCNCCCN` [Spermidine], for which the “effect on [Ca2+]i” value in assay [1] is recorded as “mobilize intracellular Ca^2+”. The “effect on [Ca2+]i in osteoclasts” value in assay [9] was “none of these caused any large increase in [Ca^2+ ]i”.
`CCCCCCCCCCCCCC(=O)O[C@@H]1[C@@H](C)[C@@]2(O)[C@@H](C=C(CO)C[C@]3(O)C(=O)C(C)=C[C@@H]23)[C@@H]2C(C)(C)[C@]12OC(C)=O` [PMA, phorbol myristate acetate]: in assay [1] (100 nM), the “effect on concentration-response curves for increases in [Ca2+]i” value is on record as “shift to the right in the concentration-response curve; also recorded: shifts to the right the concentration-response curves”. The “effect on concentration-response curves for inhibition of PTH secretion” value in [5] (100 nM, 30 minutes) is on record as “shifts to the right the concentration-response curves”. In addition, in [7], the “effect on inositol phosphate formation” value was “depresses the formation of IP1”.
